Measurements from patent US8178558B2, “Substituted pyridylmethyl bicycliccarboxyamide compounds” (Pfizer Inc., priority 2006, dated 2012).

Target: T1, human VR1 receptors (Homo sapiens, UniProt Q8NER1)
T1 construct: host or cells: cells that express human VR1 receptors (cell type not specified)
Experiment: Human VR1 antagonist assay (Ca2+ imaging)
Assay type: cell-based
Conditions: Ca2+ imaging (fura-2/AM) in cells highly expressing human VR1; agonist stimulation
Excerpt: Human VR1 Antagonist Assay
VR1 antagonistic activity can be determined by the Ca^2+ imaging assay using human VR1 highly expressing cells. The cells that highly express human VR1 receptors are obtainable from several different conventional methods. The one standard method is cloning from human Dorsal Root Ganglion (DRG) or kidney according to the methods such as described in the journal article; Nature, 389, pp 816-824, 1997. Alternatively VR1 receptors highly expressing human keratinocytes are also known and published in the journal article (Biochemical and Biophysical Research Communications, 291, pp 124-129, 2002). […] Furthermore, the method to up regulate human VR1 gene, which is usually a silent gene or don't produce detectable level of VR1 receptors, is also available to obtain propriety cells. Such genetic modification method was described in detail; Nat. Biotechnol., 19, pp 440-445, 2001.
The cells that express human VR1 receptors were maintained in culture flask at 37° C. in an environment containing 5% CO2 until use in the assay. The intracellular Ca^2+ imaging assay to determine VR1 antagonistic activities were done by following procedures.
The culture medium was removed from the flask and fura-2/AM fluorescent calcium indicator was added to the flask at a concentration of 5 μM in the medium. The flask was placed in CO2 incubator and incubated for 1 hour. Then the cells expressing the human VR1 receptors were detached from the flask follow by washing with phosphate buffer saline, PBS(−) and re-suspended in assay buffer. The 80 μl of aliquot of cell suspension (3.75×10^5 cells/ml) was added to the assay plate and the cells were spun down by centrifuge (950 rpm, 20° C., 3 minutes).
The compounds of the examples were tested in the Human VR1 antagonist assay described above.
Capsaicin Stimulation Assay
The capsaicin-induced changes in the intracellular calcium concentration were monitored using FDSS 6000 (Hamamatsu Photonics, Japan), a fluorometric imaging system. The cell suspension in Krebs-Ringer HEPES (KRH) buffer (115 mM NaCl, 5.4 mM KCl, 1 mM MgSO4, 1.8 mM CaCl2, 11 mM D-Glucose, 25 mM HEPES, 0.96 mM Na2HPO4, pH 7.3) were pre-incubated with varying concentrations of the test compounds or KRH buffer (buffer control) for 15 minutes at room temperature under the dark condition. Then capsaicin solution, which gives 300 nM in assay mixture, was automatically added to the assay plate by the FDSS 6000.
The Acid-induced changes in the intracellular calcium concentration were monitored using FDSS 6000 (Hamamatsu Photonics, Japan), a fluorometric imaging system. The cell suspension in resting buffer (HBSS supplemented with 10 mM HEPES, pH 7.4) were pre-incubated with varying concentrations of the test compounds or resting buffer (buffer control) for 15 minutes at room temperature under the dark condition. The cells were automatically added the stimulating solution (HBSS supplemented with MES, final assay buffer pH5.8) by the FDSS 6000.
Determination of Antagonist Activity
The monitoring of the changes in the fluorescence signals (λex=340 nm/380 nm, λem=510-520 nm) was initiated at 1 minute prior to the addition of capsaicin solution or acidic buffer and continued for 5 minute.

T1 sequence (Q8NER1 whole entry): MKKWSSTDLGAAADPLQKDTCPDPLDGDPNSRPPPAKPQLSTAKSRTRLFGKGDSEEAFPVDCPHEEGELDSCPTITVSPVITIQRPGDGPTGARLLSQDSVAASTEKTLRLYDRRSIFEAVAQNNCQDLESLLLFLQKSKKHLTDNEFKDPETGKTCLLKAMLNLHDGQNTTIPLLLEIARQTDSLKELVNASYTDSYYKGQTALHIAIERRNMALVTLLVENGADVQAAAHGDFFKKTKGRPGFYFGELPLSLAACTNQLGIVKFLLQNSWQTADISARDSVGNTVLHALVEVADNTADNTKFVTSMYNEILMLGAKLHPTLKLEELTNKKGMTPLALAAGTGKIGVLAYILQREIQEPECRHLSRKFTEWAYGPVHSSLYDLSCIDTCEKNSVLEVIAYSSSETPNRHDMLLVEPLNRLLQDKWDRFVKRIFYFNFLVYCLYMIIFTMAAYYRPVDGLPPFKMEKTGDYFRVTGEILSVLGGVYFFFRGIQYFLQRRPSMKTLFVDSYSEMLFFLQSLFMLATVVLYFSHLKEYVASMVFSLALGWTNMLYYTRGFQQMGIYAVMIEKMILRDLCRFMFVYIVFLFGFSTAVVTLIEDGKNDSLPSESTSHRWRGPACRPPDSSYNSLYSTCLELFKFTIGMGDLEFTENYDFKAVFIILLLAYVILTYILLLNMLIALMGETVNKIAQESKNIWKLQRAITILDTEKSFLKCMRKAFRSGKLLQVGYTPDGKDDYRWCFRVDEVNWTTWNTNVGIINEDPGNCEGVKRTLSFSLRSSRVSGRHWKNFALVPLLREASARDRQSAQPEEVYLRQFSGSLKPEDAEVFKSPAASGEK

Compound	IC50 [nM]
Cc1cc([C@@H](C)NC(=O)c2ccc3cc(C(C)(C)C)ccc3c2)ccn1 [Example C3, 6-tert-butyl-N-[(1R)-1-(2-methylpyridin-4-yl)ethyl]-2-naphthamide]	77.5
Cc1cc(CNC(=O)c2ccc3cc(C(C)(C)C)ccc3c2)c(C)cn1 [Example C4, 6-tert-butyl-N-[(2,5-dimethylpyridin-4-yl)methyl]-2-naphthamide]	32.5
CC[C@@H](NC(=O)c1ccc2cc(C(C)(C)C)ccc2c1)c1ccc(C)nc1 [Example A6, (R)-6-tert-butyl-N-(1-(6-methylpyridin-3-yl)propyl)-2-naphthamide]	261
Cc1ccc([C@@H](C)NC(=O)c2ccc3cc(C(C)(C)C)ccc3c2)cn1 [Example A3, 6-tert-butyl-N-[(1R)-1-(6-methylpyridin-3-yl)ethyl]-2-naphthamide]	96
Cc1cc(CNC(=O)c2ccc3cc(C(C)(C)C)ccc3n2)ccn1 [Example D1]	231
Cc1ccc(CNC(=O)c2ccc3cc(C(C)(C)C)ccc3c2)cn1 [Example A1, 6-tert-butyl-N-[(6-methylpyridin-3-yl)methyl]-2-naphthamide]	250
C[C@@H](NC(=O)c1ccc2cc(C(C)(C)C)ccc2c1)c1ccncc1 [Example C1, 6-tert-butyl-N-[(1R)-1-pyridin-4-ylethyl]-2-naphthamide]	451
Oc1cc2c(cc1O)CN(C(=S)NCCc1ccc(Cl)cc1)CCC2 [Capsazepine, reference compound]	237 to 455
Cc1ccc(C(C)NC(=O)c2ccc3cc(C(C)(C)C)ccc3c2)cn1 (centres unmarked) [Example A2, 6-tert-butyl-N-[1-(6-methylpyridin-3-yl)ethyl]-2-naphthamide]	67.8
C[C@@H](NC(=O)c1ccc2cc(C(C)(C)C)ccc2c1)c1ccc(CO)nc1 [Example A5, 6-tert-butyl-N-{(1R)-1-[6-(hydroxymethyl)pyridin-3-yl]ethyl}-2-naphthamide]	127
COc1cc(CNC(=O)c2ccc3cc(C(C)(C)C)ccc3c2)ccn1 [Example C2, 6-tert-butyl-N-[(2-methoxypyridin-4-yl)methyl]-2-naphthamide]	203
Cc1ncc([C@@H](C)NC(=O)c2ccc3cc(C(C)(C)C)ccc3c2)cc1Cl [Example A4, 6-tert-butyl-N-[(1R)-1-(5-chloro-6-methylpyridin-3-yl)ethyl]-2-naphthamide]	271
Cc1ccc([C@@H](C)NC(=O)c2ccc3cc(C(C)(C)C)ccc3n2)cn1 [Example B1, 6-tert-butyl-N-[(1R)-1-(6-methylpyridin-3-yl)ethyl]quinoline-2-carboxamide]	426
Cc1cc(CNC(=O)c2ccc3cc(C(C)(C)C)ccc3n2)c(C)cn1 [Example D2]	85.1
